Experimental data taken from patent publication EP4722219A1 (Gan & Lee Pharmaceuticals Co., Ltd., priority 2023, dated 2024).

What was measured:
Type in all cases: cell-based
MCF-7 cells = assay: Inhibition of cell proliferation in MCF-7 cells (CCK-8); details: MCF-7 cell proliferation, 6 days treatment
Procedure, shortened: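 IC50 from CCK-8 viability-based inhibition after 6-day treatment of MCF-7 cells (800 cells/well, 10% FBS DMEM, 37 °C, 5% CO2) with serially varied compound concentrations.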

ERα [1] = target: T1, ERα (Homo sapiens, UniProt P03372); assay: ERα degradation in MCF-7 cells (Western blot); design: host or cells: MCF-7; details: 4 hours
T1 sequence (P03372 1-595): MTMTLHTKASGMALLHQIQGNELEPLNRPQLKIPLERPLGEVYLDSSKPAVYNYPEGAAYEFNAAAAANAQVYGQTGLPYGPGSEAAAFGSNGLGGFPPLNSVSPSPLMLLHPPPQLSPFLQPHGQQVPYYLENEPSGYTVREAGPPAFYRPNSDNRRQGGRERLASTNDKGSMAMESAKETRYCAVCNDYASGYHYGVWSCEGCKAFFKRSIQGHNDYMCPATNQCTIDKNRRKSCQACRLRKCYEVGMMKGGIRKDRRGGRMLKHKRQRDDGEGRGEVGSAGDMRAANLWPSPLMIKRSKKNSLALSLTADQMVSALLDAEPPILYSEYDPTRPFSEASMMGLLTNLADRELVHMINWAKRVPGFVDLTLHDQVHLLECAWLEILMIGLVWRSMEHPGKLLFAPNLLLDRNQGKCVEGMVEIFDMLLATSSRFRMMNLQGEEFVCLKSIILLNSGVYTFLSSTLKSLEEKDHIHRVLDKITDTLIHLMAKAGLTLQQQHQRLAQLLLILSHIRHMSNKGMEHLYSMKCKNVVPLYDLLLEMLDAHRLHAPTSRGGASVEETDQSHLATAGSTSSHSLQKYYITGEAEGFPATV
Procedure, shortened: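 ERα degradation was quantified by immunoblot densitometry, ERα signal divided by internal-reference signal and compared with control. Compounds were applied to MCF-7 cells for 4 hours at final concentrations of 0.15–1000 nM, with 20 µg total protein loaded per lane.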

ERα [2] = target: T1, ERα; assay: ERα degradation in T-47D cells (Western blot); details: 4 hours
Procedure, shortened: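 ERα was quantified by immunoblot of RIPA lysates (20 µg total protein), normalised to an internal reference band, and degradation was expressed against control. Lysates came from T-47D cells plated at 3×10^5 cells/well and dosed 4 hours at 37°C with compound at 0.15-1000 nM final concentration.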

T-47D cells = assay: Inhibition of cell proliferation in T-47D cells (CCK-8); details: 6 days treatment, CCK-8 cell viability
Procedure, shortened: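 Viability by CCK-8 after a 6-day, 37 °C/5% CO2 exposure of T-47D cells (3,000/well, RPMI-1640 + 10% FBS) to graded PROTAC concentrations. Inhibition rates gave the IC50.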

Row | IC50 (MCF-7 cells) [nM] | IC50 (T-47D cells) [nM] | SMILES | IC50 (MCF-7 cells; Homo sapiens, MCF7, 144 h) [nM] | Degradation rate of ERα in MCF-7 cells (%) (ERα [1]; 1nM) | Degradation rate of ERα in MCF-7 cells (%) (ERα [1]; 10nM) | Degradation rate of ERα in T-47D cells (%) (ERα [2]; 1nM) | Degradation rate of ERα in T-47D cells (%) (ERα [2]; 10nM) | IC50 (T-47D cells; Homo sapiens, T47D, 144 h) [nM]
1 | – | – | O=C1CC[C@H](NC(=O)c2ccc3c(c2F)OCC32CCN(C3CC4(CCN(c5ccc([C@@H]6c7ccc(O)cc7CC[C@@H]6c6ccccc6)cc5)CC4)C3)CC2)C(=O)N1 [ER-P-37, N-((S)-2,6-dioxopiperidin-3-yl)-7-fluoro-1'-(7-(4-((1R,2S)-6-hydroxy-2-phenyl-1,2,3,4-tetrahydronaphthalen-1-yl)phenyl)-7-azaspiro[3.5]nonan-2-yl)-2H-spiro[benzofuran-3,4'-piperidine]-6-carboxamide] | 1400 | -6 | -9 | 6 | 4 | 18.9
2 | – | – | CN(C(=O)CN1CCC2(CC1)CCC1(CC2)COc2c1ccc1c2CN(C2CCC(=O)NC2=O)C1=O)C1CCC2(CC1)CN(c1ccc([C@@H]3c4ccc(O)cc4CC[C@@H]3c3ccccc3)cc1)C2 (stereo partly drawn) [ER-P-20, 2-(7-(2,6-dioxohesperidin-3-yl)-6-oxo-7,8-dihydro-2H,6H-dipyrazole[furo[2,3-e]isoindole-3,1'-cyclohexane-4',4'-piperidin]-1"-yl)-N-(2-(4-((1R,2S)-6-hydroxy-2-phenyl-1,2,3,4-tetrahydronaphthalen-1-yl)phenyl)-2-azaspiro[3.5]nonan-7-yl)-N-methylacetamide] | 2230 | 5 | 30 | 38 | 66 | 5.02
3 | – | – | O=C1CC[C@H](NC(=O)c2ccc3c(c2F)OCC32CCN(CC3CCN(c4ccc([C@@H]5c6ccc(O)cc6CC[C@@H]5c5ccccc5)cc4)CC3)CC2)C(=O)N1 [ER-P-42, N-((S)-2,6-dioxopiperidin-3-yl)-7-fluoro-1'-((1-(4-((1R,2S)-6-hydroxy-2-phenyl-1,2,3,4-tetrahydronaphthalen-1-yl)phenyl)piperidin-4-yl)methyl)-2H-spiro[benzofuran-3,4'-piperidine]-6-carboxamide] | 4500 | -20 | -3 | -27 | -28 | 10.4
4 | – | – | O=C1CC[C@H](NC(=O)c2cc3c(cc2F)N2CCN(C[C@H]4CC[C@@H](OC5CCN(c6ccc([C@@H]7c8ccc(O)cc8CC[C@@H]7c7ccccc7)cc6)CC5)CC4)C[C@@H]2CO3)C(=O)N1 [ER-P-67, (R)-N-((S)-2,6-dioxopiperidin-3-yl)-9-fluoro-3-(((1S,4S)-4-((1-(4-((1R,2S)-6-hydroxy-2-phenyl-1,2,3,4-tetrahydronaphthalen-1-yl)phenyl)piperidin-4-yl)oxy)cyclohexyl)methyl)-1,2,3,4,4a,5-hexahydrobenzo[b]pyrazi no[1,2-d][1,4]oxazine-8-carboxamide] | 2990 | 28 | 13 | 6 | 20 | 92.5
5 | – | – | O=C1CC[C@H](NC(=O)c2ccc3c(c2F)OCC32CCN(C3CCC4(CC3)CN(c3ccc([C@@H]5c6ccc(O)cc6CC[C@@H]5c5ccccc5)cc3)C4)CC2)C(=O)N1 [ER-P-38, N-((S)-2,6-dioxopiperidin-3-yl)-7-fluoro-1'-(2-(4-((1R,2S)-6-hydroxy-2-phenyl-1,2,3,4-tetrahydronaphthalen-1-yl)phenyl)-2-azaspiro[3.5]nonan-7-yl)-2H-spiro[benzofuran-3,4'-piperidine]-6-carboxamide] | 505 | 12 | -14 | 1 | 3 | 18.6
6 | – | – | Cn1c(=O)n(C2CCC(=O)NC2=O)c2cc3c(cc21)C1(CCN(C2CC4(CCN(c5ccc([C@@H]6c7ccc(O)cc7CC[C@@H]6c6ccccc6)cc5)CC4)C2)CC1)CO3 (stereo partly drawn) [ER-P-12, 3-(1'-(7-(4-((1R,2S)-6-hydroxy-2-phenyl-1,2,3,4-tetrahydronaphthalen-1-yl)phenyl)-7-azaspiro[3.5]nonan-2-yl)-1-methyl-2-oxo-1,2-dihydro-3H,6H-spiro[benzofuro[5,6-d]imidazole-7,4'-piperidin]-3-yl)piperidine-2,6-dione] | 25.2 | -9 | -11 | 34 | 38 | 2.4
7 | – | – | Cn1c(=O)n(C2CCC(=O)NC2=O)c2ccc3c(c21)C1(CCN(C[C@H]2CC[C@@H](OC4CCN(c5ccc([C@@H]6c7ccc(O)cc7CC[C@@H]6c6ccccc6)cc5)CC4)CC2)CC1)CO3 (stereo partly drawn) [ER-P-66, 3-(1'-(((1S,4s)-4-((1-(4-((1R,2S)-6-hydroxy-2-phenyl-1,2,3,4-tetrahydronaphthalen-1-yl)phenyl)piperidin-4-yl)oxy)cyclohexyl)methyl)-1-methyl-2-oxo-1,2-dihydro-3H,7H-spiro[benzofuro[4,5-d]imidazole-8,4'-piperidin]-3-yl)piperidine-2,6-dione] | 4100 | 6 | 30 | 18 | 49 | 14
8 | – | – | O=C1CCC(Nc2ccc3c(c2)OC2(CC3)CN(C[C@H]3CC[C@@H](OC4CCN(c5ccc([C@@H]6c7ccc(O)cc7CC[C@@H]6c6ccccc6)cc5)CC4)CC3)C2)C(=O)N1 (stereo partly drawn) [ER-P-33, 3-((1-(((1S,4s)-4-((1-(4-((1R,2S)-6-hydroxy-2-phenyl-1,2,3,4-tetrahydronaphthalen-1-yl)phenyl)piperidin-4-yl)oxy)cyclohexyl)methyl)spiro[azetidine-3,2'-chroman]-7'-yl)amino)piperidine-2,6-dione] | 2330 | -5 | -9 | -16 | 32 | 15.5
9 | – | – | O=C1CCC(N2Cc3c(ccc4c3OCC43CCC4(CC3)CN(CC3CCN(c5ccc([C@@H]6c7ccc(O)cc7CC[C@@H]6c6ccccc6)cc5)CC3)C4)C2=O)C(=O)N1 (stereo partly drawn) [ER-P-23, 3-(1-((1-(4-((1R,2S)-6-hydroxy-2-phenyl-1,2,3,4-tetrahydronaphthalen-1-yl)phenyl)piperidin-4-yl)methyl)-6"-oxo-6",8"-dihydro-2"H,7"H-di(pyridyl)furan[azetidine-3,1'-cyclohexane-4',3"-furo[2,3-e]isoindol]-7"-yl)piperidine-2,6-dione] | < 0.256 | 26 | 48 | 40 | 67 | 1.61
10 | – | – | O=C1CCC(N2Cc3c(ccc4c3OCC43CCC4(CCN(C5CC6(CCN(c7ccc([C@@H]8c9ccc(O)cc9CC[C@@H]8c8ccccc8)cc7)CC6)C5)CC4)CC3)C2=O)C(=O)N1 (stereo partly drawn) [ER-P-3] | < 0.256 | 25 | 69 | 28 | 73 | 3.02
11 | 3730 | 1.17 | COc1cc2c(cc1C(=O)N[C@H]1CCC(=O)NC1=O)N(C)C[C@H]1CN(CC3CCC(OC4CCN(c5ccc([C@@H]6c7ccc(O)cc7CC[C@@H]6c6ccccc6)cc5)CC4)CC3)CCN21 (stereo partly drawn) [ER-P-49, (R)-N-((S)-2,6-dioxopiperidin-3-yl)-3-(((1S,4S)-4-((1-(4-((1R,2S)-6-hydroxy-2-phenyl-1,2,3,4-tetrahydronaphthalen-1-yl)phenyl)piperidin-4-yl)oxy)cyclohexyl)methyl)-9-methoxy-6-methyl-2,3,4,4a,5,6-hexahydro-1H-pyrazino[1,2-a]quinoxaline-8-carboxamide] | – | -12 | 23 | -11 | 30 | –
